Structures can show the parent of a compound that is named as a salt.
Columns and labels:
DENV-4 strain H241 = test: Tetravalent RT-qPCR assay, serotype 4; type: cell-based; settings: Dengue virus, DENV4, 72 h; RT-qPCR serotype 4 H241, Protocol A, Vero cells, day 3
Protocol: (§1) The antiviral activity of the compounds of the invention was tested against DENV-1 strain TC974#666 (NCPV), DENV-2 strain 16681, DENV-3 strain H87 (NCPV) and DENV-4 strain H241 (NCPV) in a RT-qPCR assay. Therefore, Vero cells were infected with either DENV-1, or -2, or -3, or -4 in the presence or absence of test compounds. At day 3 post-infection, the cells were lysed and cell lysates were used to prepare cDNA of both a viral target (the 3′UTR of DENV; Table 2) and a cellular reference gene (β-actin, Table 2). Subsequently, a duplex real time PCR was performed on a Lightcycler480 instrument. The generated Cp value is inversely proportional to the amount of RNA expression of these targets. Inhibition of DENV replication by a test compound results in a shift of Cp's for the 3′UTR gene. On the other hand, if a test compound is toxic to the cells, a similar effect on β-actin expression will be observed. The comparative ΔΔCp method is used to calculate EC50, which is based on the relative gene expression of the target gene (3′UTR) normalized with the cellular housekeeping gene (β-actin). In addition, CC50 values are determined based on the Cp values acquired for the housekeeping gene β-actin.
(§2) The culture medium consisted of minimal essential medium supplemented with 2% of heat-inactivated fetal calf serum, 0.04% gentamycin (50 mg/mL) and 2 mM of L-glutamine. Vero cells, obtained from ECACC, were suspended in culture medium and 75 μL/well was added in 96-well plates (10000 cells/well), which already contain the antiviral compounds. […] In addition, each plate contains wells which are assigned as virus controls (containing cells and virus in the absence of compound) and cell controls (containing cells in the absence of virus and compound). Once the cells were added in the plates, the plates were incubated in a fully humidified incubator (37° C., 5% CO2) until the next day. Dengue viruses serotype-1, -2, -3 and -4 were diluted in order to obtain a Cp of ˜22-24 in the assay. Therefore, 25 μL of virus suspension was added to all the wells containing test compound and to the wells assigned as virus control. In parallel, 25 μL of culture medium was added to the cell controls. Next, the plates were incubated for 3 days in a fully humidified incubator (37° C., 5% CO2). After 3 days, the supernatant was removed from the wells and the cells were washed twice with ice-cold PBS (˜100 μL). The cell pellets within the 96-well plates were stored at −80° C. for at least 1 day. Next, RNA was extracted using the Cells-to-CT^Tm lysis kit, according to the manufacturer's guideline (Life Technologies). The cell lysates can be stored at −80° C. or immediately used in the reverse transcription step.
(§3) In preparation of the reverse transcription step, mix A (table 3A) was prepared and 7.57 μL/well was dispensed in a 96-well plate. After addition of 5 μL of the cell lysates, a five minute denaturation step at 75° C. was performed (table 3B). Afterwards, 7.43 μL of mix B was added (table 3C) and the reverse transcription step was initiated (table 3D) to generate cDNA.
(§4) Finally, a RT-qPCR mix was prepared, mix C (table 4A), and 22.02 μL/well was dispensed in 96-well LightCycler qPCR plates to which 3 μL of cDNA was added and the qPCR was performed according to the conditions in table 4B on a LightCycler 480.
(§5) Using the LightCycler software and an in-house LIMS system, dose response curves for each compound were calculated and the half maximal effective concentration (EC50) and the half maximal cytotoxic concentration (CC50) were determined (Tables 5-8).

DENV-2 16681 strain = test: DENV-2 antiviral assay (eGFP fluorescence); type: cell-based, Dengue virus; settings: DENV-2 16681 eGFP, Vero cells, MOI 0.5, 3 days
Protocol: The antiviral activity of all the compounds of the invention was tested against the DENV-2 16681 strain which was labeled with enhanced green fluorescent protein (eGPF). The culture medium consists of minimal essential medium supplemented with 2% of heat-inactivated fetal calf serum, 0.04% gentamycin (50 mg/mL) and 2 mM of L-glutamine. Vero cells, obtained from ECACC, were suspended in culture medium and 25 μL was added to 384-well plates (2500 cells/well), which already contain the antiviral compounds. Typically, these plates contain a 5-fold serial dilution of 9 dilution steps of the test compound at 200 times the final concentration in 100% DMSO (200 nL). […] Finally, each plate contains wells which are assigned as virus controls (containing cells and virus in the absence of compound), cell controls (containing cells in the absence of virus and compound) and medium controls (containing medium in the absence of cells, virus and compounds). To the wells assigned as medium control, 25 μL of culture medium was added instead of Vero cells. Once the cells were added to the plates, the plates were incubated for 30 minutes at room temperature to allow the cells to distribute evenly within the wells. Next, the plates were incubated in a fully humidified incubator (37° C., 5% CO2) until the next day. Then, DENV-2 strain 16681, labeled with eGFP, was added at a multiplicity of infection (MOI) of 0.5. Therefore, 15 μL of virus suspension was added to all the wells containing test compound and to the wells assigned as virus control. In parallel, 15 μL of culture medium was added to the medium and cell controls. Next, the plates were incubated for 3 days in a fully humidified incubator (37° C., 5% CO2). At the day of the read out, the eGFP fluorescence was measured using an automated fluorescence microscope at 488 nm (blue laser). Using an in-house LIMS system, inhibition dose response curves for each compound were calculated and the half maximal effective concentration (EC50) was determined. Therefore, the percent inhibition (I) for every test concentration is calculated using the following formula: I=100*(ST-SCC)/(SVC-SCC); ST, SCC and SVC are the amount of eGFP signal in the test compound, cell control and virus control wells, respectively. The EC50, represents the concentration of a compound at which the virus replication is inhibited with 50%, as measured by a 50% reduction of the eGFP fluorescent intensity compared to the virus control. The EC50 is calculated using linear interpolation (Table 1).

DENV-3 strain H87 = test: Tetravalent RT-qPCR assay, serotype 3; type: cell-based; settings: Dengue virus, DENV3, 72 h; RT-qPCR serotype 3 H87, Protocol A, Vero cells, day 3
Protocol: as §1, §2, §3, §4, §5

DENV-2 strain 16681 = test: Tetravalent RT-qPCR assay, serotype 2; type: cell-based; settings: Dengue virus, DENV2, 72 h; RT-qPCR serotype 2 16681, Protocol A, Vero cells, day 3
Protocol: as §1, §2, §3, §4, §5

DENV-1 strain TC974#666 = test: Tetravalent RT-qPCR assay, serotype 1; type: cell-based; settings: Dengue virus, DENV1, Vero, 72 h
Protocol: as §1, §2, §3, §4, §5

Vero cells = settings: African green monkey
in vitro = settings: African green monkey

| SMILES | EC50 (DENV-4 strain H241) | EC50 (DENV-2 16681 strain) | EC50 (DENV-3 strain H87) | EC50 (DENV-2 strain 16681) | EC50 (DENV-1 strain TC974#666) | CC50 (Vero cells) | melting point | CC50 (in vitro) |
| --- | --- | --- | --- | --- | --- | --- | --- | --- |
| COc1cc(NC(C(=O)N2CCc3ccc(OC(F)(F)F)cc32)c2ccc(F)cc2)cc(OCCCC(=O)O)c1 (single isomer, unassigned) [Compound 2B] | 30 nM | 0.24 nM | 4.6 nM | 0.28 nM | 0.3 nM | 20000 nM | – | – |
| COc1cc(NC(C(=O)N2CCc3ccc(C(F)(F)F)cc32)c2ccc(Cl)cc2F)cc(OCCCC(=O)O)c1 (racemic) (as salt: HCl) [Compound 9, 4-(3-((1-(4-chloro-2-fluorophenyl)-2-oxo-2-(6-(trifluoromethyl)indolin-1-yl)ethyl)amino)-5-methoxy-phenoxy)butanoic acid] | – | – | – | – | – | – | 110 °C | – |
| COc1cc(NC(C(=O)N2CCc3cc(OC)c(C(F)(F)F)cc32)c2ccc(Cl)cc2)cc(OCCCC(=O)O)c1 (single isomer, unassigned) [Compound 5B] | 24 nM | 0.18 nM | 4.6 nM | 0.17 nM | 0.74 nM | 13000 nM | – | – |
| COc1cc(NC(C(=O)N2CCc3ccc(OC(F)(F)F)cc32)c2ccc(Cl)cc2OC)cc(OCCCC(=O)O)c1 (racemic) (as salt: HCl) [Compound 8, 4-(3-((1-(4-chloro-2-methoxyphenyl)-2-oxo-2-(6-(trifluoro-methoxy)indolin-1-yl)ethyl)amino)-5-methoxyphenoxy)butanoic acid] | – | – | – | – | – | – | 139 °C | – |
| COc1cc(NC(C(=O)N2CCc3ccc(C(F)(F)F)cc32)c2ccc(Cl)cc2OC)cc(OCCCC(=O)O)c1 (racemic) (as salt: HCl) [Compound 6, 4-(3-((1-(4-chloro-2-methoxyphenyl)-2-oxo-2-(6-(trifluoro-methyl)indolin-1-yl)ethyl)amino)-5-methoxyphenoxy)butanoic acid] | – | – | – | – | – | – | 178 °C | – |
| COc1cc(NC(C(=O)N2CCc3cc(OC)c(C(F)(F)F)cc32)c2ccc(Cl)cc2OC)cc(OCCCC(=O)O)c1 (single isomer, unassigned) [Compound 7B] | 25 nM | 0.17 nM | 5.8 nM | 0.28 nM | 0.61 nM | 13000 nM | – | – |
| COc1cc(NC(C(=O)N2CCc3ccc(C(F)(F)F)cc32)c2ccc(Cl)cc2)cc(OCCCC(=O)O)c1 (single isomer, unassigned) [Compound 3B] | 14 nM | 0.14 nM | 1.1 nM | 0.12 nM | 0.18 nM | 13000 nM | – | – |
| COc1cc(NC(C(=O)N2CCc3ccc(C(F)(F)F)cc32)c2ccc(F)cc2)cc(OCCCC(=O)O)c1 (single isomer, unassigned) [Compound 1B] | 51 nM | 0.84 nM | 3.4 nM | 0.48 nM | 0.28 nM | 20000 nM | – | – |
| COc1cc(NC(C(=O)N2CCc3cc(OC)c(C(F)(F)F)cc32)c2ccc(Cl)cc2F)cc(OCCCC(=O)O)c1 (single isomer, unassigned) [Compound 11B] | 22 nM | 0.15 nM | 5.4 nM | 0.17 nM | 0.67 nM | 12000 nM | – | – |
| COc1cc(NC(C(=O)N2CCc3ccc(OC(F)(F)F)cc32)c2ccc(F)cc2)cc(OCCCC(=O)O)c1 (racemic) (as salt: HCl) [Compound 2, 4-(3-((1-(4-fluorophenyl)-2-oxo-2-(6-(trifluoromethoxy)indolin-1-yl)ethyl)amino)-5-methoxyphenoxy)butanoic acid] | – | – | – | – | – | – | 136 °C | – |
| COc1cc(NC(C(=O)N2CCc3ccc(C(F)(F)F)cc32)c2ccc(Cl)cc2F)cc(OCCCC(=O)O)c1 (single isomer, unassigned) [Compound 9B] | 31 nM | 0.4 nM | 4.1 nM | 0.3 nM | 0.22 nM | 13000 nM | – | – |
| COc1cc(NC(C(=O)N2CCc3cc(OC)c(C(F)(F)F)cc32)c2ccc(Cl)cc2)cc(OCCCC(=O)O)c1 (racemic) (as salt: HCl) [Compound 5, 4-(3-((1-(4-chlorophenyl)-2-(5-methoxy-6-(trifluoromethyl)indolin-1-yl)-2-oxoethyl)amino)-5-methoxyphenoxy)butanoic Acid] | – | – | – | – | – | – | 130 °C | – |
| COc1cc(NC(C(=O)N2CCc3cc(OC)c(OC(F)(F)F)cc32)c2ccc(Cl)cc2)cc(OCCCC(=O)O)c1 (single isomer, unassigned) [Compound 12B] | 28 nM | 0.35 nM | 4.1 nM | 0.22 nM | 0.68 nM | 12000 nM | – | – |
| COc1cc(NC(C(=O)N2CCc3ccc(OC(F)(F)F)cc32)c2ccc(Cl)cc2)cc(OCCCC(=O)O)c1 (single isomer, unassigned) [Compound 4B] | 11 nM | 0.12 nM | 0.66 nM | 0.06 nM | 0.048 nM | 13000 nM | – | – |
| COc1cc(NC(C(=O)N2CCc3ccc(OC(F)(F)F)cc32)c2ccc(Cl)cc2OC)cc(OCCCC(=O)O)c1 (single isomer, unassigned) [Compound 8B] | 12 nM | 0.066 nM | 1 nM | 0.062 nM | 0.15 nM | 14000 nM | – | – |
| COc1cc(NC(C(=O)N2CCc3ccc(OC(F)(F)F)cc32)c2ccc(Cl)cc2F)cc(OCCCC(=O)O)c1 (single isomer, unassigned) [Compound 10A] | 10 nM | 0.19 nM | 2.1 nM | 0.2 nM | 0.16 nM | – | – | 13000 nM |
